Laboratory results from patent publication US20200405696A1, “INHIBITORS OF INDOLEAMINE 2,3-DIOXYGENASE AND/OR TRYPTOPHAN 2,3-DIOXYGENASE” (IDORSIA PHARMACEUTICALS LTD, priority 2018, published 2020).

Key:
[1] = molecular target: T1, Recombinant full-length human IDO1 (Homo sapiens, UniProt P14902); experiment: IDO1 enzymatic assay (NFK quantified by LCMS); format: biochemical; settings: 2 nM enzyme, 5 μM L-tryptophan, pH6.5, 30 minutes pre-incubation at RT; mean values when measured multiple times; read-out: hIDO activity (IC50 in nM)
T1 construct: Recombinant full-length human IDO1 with a N-terminal hexahistidine tag; hexahistidine (His6) (N); made in house; host or cells: E. coli
Description: 1) Testing Compounds for IDO Inhibitory Activity in an IDO1 Enzymatic Assay:
Recombinant full-length human IDO1 with a N-terminal hexahistidine tag expressed in E. coli and purified to homogeneity is incubated at a final concentration of 2 nM in assay buffer consisting of 37.5 mM phosphate buffer at pH6.5 supplemented with 10 mM ascorbic acid, 0.45 μM methylene blue, 50U/ml catalase, 0.01% BSA, and 0.01% Tween 20 (protocol modified from Seegers et al, JBS 2014). Example compounds are serially diluted in DMSO, further diluted in phosphate buffer, and added to the enzyme at final concentrations ranging from 10 μM to 0.5 nM. The final DMSO concentration is 0.6%. Following a pre-incubation of 30 minutes at RT, the reaction is started by the addition of L-tryptophan at a final concentration of 5 μM in assay buffer. After 30 minutes of incubation at RT, 3 μL of the 20 μl reaction mixture are transferred to a 384 deep well plate containing 25 μL of deionized water. 100 μl of 200 nM L-Tryptophan-(indole-d5) in cold 100% methanol are added followed by a 10 minutes centrifugation at 3220×g at 4° C. An additional 75 μL of deionized water are then added followed by a 10 minutes centrifugation at 3220×g at 4° C. The product of the reaction N′-Formylkynurenine (NFK) is quantified by LCMS and normalized to the L-Tryptophan-(indole-d5) signal. Samples with 0.6% DMSO (0% effect) and a TDO/IDO inhibitor (100% effect) are used as control samples to set the parameters for the non-linear regression necessary for the determination of the half-maximal inhibitory concentration (IC50) for each compound. For each compound concentration the percentage of activity compared to 0% and 100% effect is calculated as average±STDEV (each concentration measured in duplicate). IC50 values and curves are generated with XLfit software (IDBS) using Dose-Response One Site model 203 (four parameter logistic curve model). The calculated IC50 values may fluctuate depending on the daily assay performance. Fluctuations of this kind are known to those skilled in the art. When compounds are measured multiple times, mean values are given.

[2] = molecular target: T2, Recombinant human TDO comprising amino acids 19-407 (Homo sapiens, UniProt P48775); experiment: TDO2 enzymatic assay (NFK quantified by LCMS); format: biochemical; settings: 15 nM enzyme, 200 μM L-tryptophan, pH7, 30 minutes pre-incubation at RT; mean values when measured multiple times; read-out: hTDO activity (IC50 in nM)
T2 construct: Recombinant human TDO comprising amino acids 19-407 with a N-terminal hexahistidine tag; hexahistidine (His6) (N); made in house; host or cells: E. coli
Description: 2) Testing Compounds for TDO Inhibitory Activity in a TDO2 Enzymatic Assay:
Recombinant human TDO comprising amino acids 19-407 with a N-terminal hexahistidine tag expressed in E. coli and purified to homogeneity is incubated at a final concentration of 15 nM in assay buffer consisting of 75 mM phosphate buffer at pH7 supplemented with 100 μM ascorbic acid, 50U/ml Catalase, 0.01% BSA, and 0.01% Tween 20 (protocol modified from Seegers et al, JBS 2014). Example compounds are serially diluted in DMSO, further diluted in phosphate buffer, and added to the reaction mixture at final concentrations ranging from 10 μM to 0.5 nM. The final DMSO concentration is 0.6%. Following a pre-incubation of 30 minutes at RT, the reaction is started by the addition of L-tryptophan at a final concentration of 200 μM in assay buffer. After 30 minutes of incubation at RT, 3 μL of the reaction mixture are transferred to a 384 deep well plate containing 25 μL of deionized water. 100 μl of 200 nM L-Tryptophan-(indole-d5) in cold 100% methanol are added followed by a 10 minutes centrifugation at 3220×g at 4° C. An additional 75 μL of deionized water are then added followed by a 10 minutes centrifugation at 3220×g at 4° C. The product of the reaction N′-Formylkynurenine (NFK) is quantified by LCMS and normalized to the L-Tryptophan-(indole-d5) signal. Samples with 0.6% DMSO (0% effect) and a TDO/IDO inhibitor (100% effect) are used as control samples to set the parameters for the non-linear regression necessary for the determination of the half-maximal inhibitory concentration (IC50) for each compound. For each compound concentration the percentage of activity compared to 0% and 100% effect is calculated as average±STDEV (each concentration measured in duplicate). IC50 values and curves are generated with XLfit software (IDBS) using Dose-Response One Site model 203 (four parameter logistic curve model). The calculated IC50 values may fluctuate depending on the daily assay performance. Fluctuations of this kind are known to those skilled in the art. When compounds are measured multiple times, mean values are given.

T2 sequence (P48775 19-406 limits assumed): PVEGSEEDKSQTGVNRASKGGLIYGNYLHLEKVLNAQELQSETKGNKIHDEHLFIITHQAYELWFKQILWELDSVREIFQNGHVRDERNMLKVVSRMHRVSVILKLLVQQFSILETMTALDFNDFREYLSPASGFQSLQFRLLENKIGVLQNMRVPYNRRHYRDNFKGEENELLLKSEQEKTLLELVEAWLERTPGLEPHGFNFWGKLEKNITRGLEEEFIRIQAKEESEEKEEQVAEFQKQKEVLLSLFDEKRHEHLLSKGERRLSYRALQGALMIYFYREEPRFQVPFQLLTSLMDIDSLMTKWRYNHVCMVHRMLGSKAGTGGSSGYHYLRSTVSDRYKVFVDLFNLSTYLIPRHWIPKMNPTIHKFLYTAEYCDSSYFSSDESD
T1 sequence (P14902 whole entry): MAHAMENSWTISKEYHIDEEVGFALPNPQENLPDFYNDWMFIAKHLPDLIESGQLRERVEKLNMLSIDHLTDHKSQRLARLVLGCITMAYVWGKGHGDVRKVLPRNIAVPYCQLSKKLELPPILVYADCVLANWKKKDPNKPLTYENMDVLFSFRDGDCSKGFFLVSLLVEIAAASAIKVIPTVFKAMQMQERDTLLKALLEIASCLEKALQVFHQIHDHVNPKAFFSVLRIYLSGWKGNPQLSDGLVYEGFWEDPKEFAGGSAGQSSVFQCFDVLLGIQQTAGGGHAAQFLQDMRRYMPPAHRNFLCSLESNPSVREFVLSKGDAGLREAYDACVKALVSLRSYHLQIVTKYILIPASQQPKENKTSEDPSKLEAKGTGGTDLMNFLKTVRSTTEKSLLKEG

Compound	IC50 [1] [nM]	IC50 [2] [nM]
Nc1ccc(-n2cc(C(O)c3c(C4CC4)sc4cncn34)nn2)cc1Cl (racemic) [Example 278, rac-[1-(4-Amino-3-chloro-phenyl)-1H-[1,2,3]triazol-4-yl]-(2-cyclopropyl-imidazo[5,1-b]thiazol-3-yl)-methanol]	8.71	> 10200
OC(c1cn(-c2ccccc2C(F)(F)F)nn1)c1c(C2CC2)sc2cncn12 (racemic) [Example 29, rac-(2-Cyclopropyl-imidazo[5,1-b]thiazol-3-yl)-[1-(2-trifluoromethyl-phenyl)-1H-[1,2,3]triazol-4-yl]-methanol]	163	> 10200
NS(=O)(=O)c1ccc(-n2cc(C(O)c3c(C4CC4)sc4cncn34)nn2)cc1 (racemic) [Example 235, rac-4-{4-[(2-Cyclopropyl-imidazo[5,1-b]thiazol-3-yl)-hydroxy-methyl]-[1,2,3]triazol-1-yl}-benzenesulfonamide]	24.3	> 10200
Cc1sc2cncn2c1C(O)c1cn(-c2ccc3[nH]ccc3c2)nn1 (racemic) [Example 59, rac-[1-(1H-Indol-5-yl)-1H-[1,2,3]triazol-4-yl]-(2-methyl-imidazo[5,1-b]thiazol-3-yl)-methanol]	50.4	8400
OC[C@H](O)COc1ccc(-n2cc(C(O)c3c(C4CC4)sc4cncn34)nn2)cc1 (mixture of isomers) [Example 202, (S)-3-(4-{4-[(R)-(2-Cyclopropyl-imidazo[5,1-b]thiazol-3-yl)-hydroxy-methyl]-[1,2,3]triazol-1-yl}-phenoxy)-propane-1,2-diol and (S)-3-(4-{4-[(S)-(2-Cyclopropyl-imidazo[5,1-b]thiazol-3-yl)-hydroxy-methyl]-[1,2,3]triazol-1-yl}-phenoxy)-propane-1,2-diol]	15	> 10200
Cc1sc2cncn2c1C(O)c1cn(Cc2ccccc2)nn1 (racemic) [Example 62, rac-(1-Benzyl-1H-[1,2,3]triazol-4-yl)-(2-methyl-imidazo[5,1-b]thiazol-3-yl)-methanol]	795	> 10200
COc1cc(F)c(-n2cc(C(O)c3c(C4CC4)sc4cncn34)nn2)cc1F (racemic) [Example 318, rac-(2-Cyclopropyl-imidazo[5,1-b]thiazol-3-yl)-[1-(2,5-difluoro-4-methoxy-phenyl)-1H-[1,2,3]triazol-4-yl]-methanol]	2.99	> 10200
NC(=O)Nc1ccc(-n2cc(C(O)c3c(C4CC4)sc4cncn34)nn2)cc1 (racemic) [Example 109, rac-(4-{4-[(2-Cyclopropyl-imidazo[5,1-b]thiazol-3-yl)-hydroxy-methyl]-[1,2,3]triazol-1-yl}-phenyl)-urea]	24	7110
OC(c1cn(-c2cccc3ncccc23)nn1)c1c(C2CC2)sc2cncn12 (racemic) [Example 24, rac-(2-Cyclopropyl-imidazo[5,1-b]thiazol-3-yl)-(1-quinolin-5-yl-1H-[1,2,3]triazol-4-yl)-methanol]	22.8	> 10200
COc1ccc(-n2cc(C(O)c3c(C4CC4)sc4cncn34)nn2)cc1F (racemic) [Example 327, rac-(2-Cyclopropyl-imidazo[5,1-b]thiazol-3-yl)-[1-(3-fluoro-4-methoxy-phenyl)-1H-[1,2,3]triazol-4-yl]-methanol]	4.29	> 10200
COc1ccc(-n2cc(C(O)c3c(-c4ccccc4F)sc4cncn34)nn2)cc1 (racemic) [Example 287, rac-[2-(2-Fluoro-phenyl)-imidazo[5,1-b]thiazol-3-yl]-[1-(4-methoxy-phenyl)-1H-[1,2,3]triazol-4-yl]-methanol]	88.8	8670
Oc1ccc(-n2cc(C(O)c3c([C@@H]4C[C@@H]4F)sc4cncn34)nn2)cc1Cl (relative stereo) [Example 325, 2-Chloro-4-(4-{[2-(cis-2-fluoro-cyclopropyl)-imidazo[5,1-b]thiazol-3-yl]-hydroxy-methyl}-[1,2,3]triazol-1-yl)-phenol]	8.31	> 10200
CCc1sc2cncn2c1C(O)c1cn(-c2cc(F)c(OC)cc2F)nn1 (racemic) [Example 321, rac-[1-(2,5-Difluoro-4-methoxy-phenyl)-1H-[1,2,3]triazol-4-yl]-(2-ethyl-imidazo[5,1-b]thiazol-3-yl)-methanol]	2.13	3680
COc1ccc(-n2nnc(C(O)c3c(C4CC4)sc4cncn34)c2C2CC2)cc1 (racemic) [Example 281, rac-(2-Cyclopropyl-imidazo[5,1-b]thiazol-3-yl)-[5-cyclopropyl-1-(4-methoxy-phenyl)-1H-[1,2,3]triazol-4-yl]-methanol]	13.7	9020
OC(c1cn(-c2ccc(CN3CCOCC3)cc2)nn1)c1c(C2CC2)sc2cncn12 (racemic) [Example 37, rac-(2-Cyclopropyl-imidazo[5,1-b]thiazol-3-yl)-[1-(4-morpholin-4-ylmethyl-phenyl)-1H-[1,2,3]triazol-4-yl]-methanol]	175	> 10200
CCc1sc2cncn2c1C(O)c1cn(-c2cc(Cl)c(OC)cc2F)nn1 (racemic) [Example 319, rac-[1-(5-Chloro-2-fluoro-4-methoxy-phenyl)-1H-[1,2,3]triazol-4-yl]-(2-ethyl-imidazo[5,1-b]thiazol-3-yl)-methanol]	3.18	4430
CCc1sc2cncn2c1C(O)c1cn(-c2ccc3c(c2)C(C)NS3(=O)=O)nn1 (stereo not shown) [Example 227, (2-Ethyl-imidazo[5,1-b]thiazol-3-yl)-[1-(3-methyl-1,1-dioxo-2,3-dihydro-1H-1I6-benzo[d]isothiazol-5-yl)-1H-[1,2,3]triazol-4-yl]-methanol]	77.8	> 10200
CC(C)(C)C(=O)Nc1ccc(-n2cc(C(O)c3c(C4CC4)sc4cncn34)nn2)cc1 (racemic) [Example 187, rac-N-(4-{4-[(2-Cyclopropyl-imidazo[5,1-b]thiazol-3-yl)-hydroxy-methyl]-[1,2,3]triazol-1-yl}-phenyl)-2,2-dimethyl-propionamide]	13.7	> 10200
CCc1sc2cncn2c1C(O)c1cn(Cc2ccccc2)nn1 (racemic) [Example 53, rac-(1-Benzyl-1H-[1,2,3]triazol-4-yl)-(2-ethyl-imidazo[5,1-b]thiazol-3-yl)-methanol]	73.6	> 10200
OC(c1cn(-c2ccc3c(Cl)n[nH]c3c2)nn1)c1c(C2CC2)sc2cncn12 (racemic) [Example 258, rac-[1-(3-Chloro-1H-indazol-6-yl)-1H-[1,2,3]triazol-4-yl]-(2-cyclopropyl-imidazo[5,1-b]thiazol-3-yl)-methanol]	34	> 10200
